Patent US6821999B2 (priority 2001, dated 2004)
Where two headings read alike, the source gives them in different places.

What was measured:
Type in all cases: cell-based, Staphylococcus aureus
[1] = system: S. aureus (MN8); conditions: for TSST-1 produced compared to the control: S. aureus MN8, in the presence of the compound
[2] = system: S. aureus FRI-1187; conditions: S. aureus FRI-1187, in the presence of triclosan
[3] = system: S. aureus FRI-1169; conditions: S. aureus FRI-1169, in the presence of triclosan

| SMILES | Reduction of Toxin (%) [1] [%] | reduced the amount of toxin produced [1] | TSST-1 produced compared to the control [1] | Reduction of Toxin (%) ([1]; S. aureus MN8, test compound 2 μg/mL, 24 h, vs methanol control) | TSST-1 produced compared to the control [2] | TSST-1 produced compared to the control [3] | Reduction of Toxin (%) ([1]; S. aureus MN8, test compound 0.01 μg/mL, 24 h, vs methanol control) |
| --- | --- | --- | --- | --- | --- | --- | --- |
| Oc1ccc(Cc2ccccc2)cc1 [4-Hydroxydiphenyl-methane, 4-hydroxydiphenyl methane] | 24 | about 24% |  |  |  |  |  |
| Oc1c(Cl)cc(Cl)c(Cl)c1Cc1c(O)c(Cl)cc(Cl)c1Cl [Hexachlorophene, hexachlorophene] |  |  | significantly less | 68 |  |  |  |
| Oc1cc(Cl)ccc1Oc1ccc(Cl)cc1Cl [Triclosan, triclosan] |  |  | significantly less |  | produced less TSST-1 | produced less TSST-1 | 88 |
